Results as given in US20120029187A1, “HALOALKYLSULFONANILIDE DERIVATIVE” (Nissan Chemical Industries, Ltd., priority 2009, published 2012).

How the values were obtained:
Type in all cases: in vivo
water foxtail [1] = assay: Test Example 4: herbicidal effect in foliage treatment; conditions: three weeks after application
Outline: (§1)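 14-day greenhouse-grown plants (25–30° C) sprayed on foliage with diluted EC; dose as g/a; effect graded after 3 weeks.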

common ragweed [2] = assay: as above; conditions: three weeks after application
Outline: as §1

posumbu knotweed [3] = assay: as above; conditions: dose 3.2 g/a, three weeks after application
Outline: as §1

redroot pigweed [4] = assay: as above; conditions: dose 3.2 g/a, three weeks after application
Outline: as §1

beadstraw [5] = assay: as above; conditions: three weeks after application
Outline: as §1

common chickweed [6] = assay: as above; conditions: three weeks after application
Outline: as §1

giant foxtail [7] = assay: as above; conditions: three weeks after application
Outline: as §1

Italian ryegrass [8] = assay: as above; conditions: three weeks after application
Outline: as §1

large crabgrass [9] = assay: as above; conditions: three weeks after application
Outline: as §1

common lambsquater [10] = assay: as above; conditions: three weeks after application
Outline: as §1

velvetleaf [11] = assay: as above; conditions: dose 3.2 g/a, three weeks after application
Outline: as §1

barnyardgrass [12] = assay: as above; conditions: three weeks after application
Outline: as §1

water foxtail [13] = assay: Test Example 3: herbicidal effects in soil treatment
Outline: (§2)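 Seeds were sown in sterilized diluvial soil and covered with about 1.5 cm of soil. Compounds, formulated as emulsifiable concentrates and diluted with water, were sprayed evenly over the soil surface at set doses in g/a. Herbicidal effect was scored on a rating scale three weeks later.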

common ragweed [14] = assay: as above; conditions: dose 3.2 g/a
Outline: as §2

posumbu knotweed [15] = assay: as above; conditions: dose 3.2 g/a
Outline: as §2

redroot pigweed [16] = assay: as above
Outline: as §2

wild oat [17] = assay: as above
Outline: as §2

beadstraw [18] = assay: as above
Outline: as §2

common chickweed [19] = assay: as above
Outline: as §2

giant foxtail [20] = assay: as above
Outline: as §2

Italian ryegrass [21] = assay: as above
Outline: as §2

large crabgrass [22] = assay: as above
Outline: as §2

common lambsquater [23] = assay: as above
Outline: as §2

velvetleaf [24] = assay: as above; conditions: dose 3.2 g/a
Outline: as §2

barnyardgrass [25] = assay: as above
Outline: as §2

ducksalad [26] = assay: Test Example 2: herbicidal effects during the vegetation period under submerged conditions; conditions: treatment during the vegetation period under submerged conditions; dose 2.52 g/a
Outline: (§3)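 Barnyardgrass, bulrush and ducksalad were co-sown in alluvial soil flooded to 4 cm and grown in a greenhouse at 25 to 30° C. At the 1- or 2-leaf stage, water-diluted emulsifiable concentrates went onto the water surface at set doses (g/a). Herbicidal effect was scored three weeks later on a graded scale.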

bulrush [27] = assay: as above; conditions: treatment during the vegetation period under submerged conditions; dose 2.52 g/a
Outline: as §3

barnyardgrass [28] = assay: as above; conditions: treatment during the vegetation period under submerged conditions; dose 2.52 g/a
Outline: as §3

ducksalad [29] = assay: Test Example 1: herbicidal effects in preemergence treatment under submerged conditions; conditions: dose 2.52 g/a
Outline: (§4)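 Scoring 0 (<5% mortality) to 5 (≥90%) was done three weeks after preemergence application to the water surface of submerged (4 cm) alluvial soil, doses given as g per are. Weeds were seeded and 2.5-leaf rice transplanted on the treatment day; greenhouse at 25–30 °C.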

bulrush [30] = assay: as above; conditions: dose 2.52 g/a
Outline: as §4

barnyardgrass [31] = assay: as above; conditions: dose 2.52 g/a
Outline: as §4

transplanted rice = assay: Test Example 1: preemergence treatment under submerged conditions, effect on crop; conditions: dose 2.52 g/a
Outline: as §4

wild oat [32] = assay: Test Example 4: herbicidal effect in foliage treatment; conditions: dose 6.3 g/a, three weeks after application
Outline: as §1

CCC(=O)N(c1ccccc1CN1COC2(CCCC2)CC1=O)S(=O)(=O)C(F)(F)F [II-65]
G: water foxtail, herbicidal effect (water foxtail [1]; dose 3.2 g/a): 5 (mortality of 90% or above (nearly complete death))
J: common ragweed, herbicidal effect (common ragweed [2]; dose 3.2 g/a): 3 (mortality of at least 40% and less than 70%)
M: posumbu knotweed, herbicidal effect (posumbu knotweed [3]): 3 (mortality of at least 40% and less than 70%)
K: redroot pigweed, herbicidal effect (redroot pigweed [4]): 0 (mortality of less than 5% (almost ineffective))
O: beadstraw, herbicidal effect (beadstraw [5]; dose 3.2 g/a): 0 (mortality of less than 5% (almost ineffective))
N: common chickweed, herbicidal effect (common chickweed [6]; dose 3.2 g/a): 5 (mortality of 90% or above (nearly complete death))
E: giant foxtail, herbicidal effect (giant foxtail [7]; dose 3.2 g/a): 4 (mortality of at least 70% and less than 90%)
H: Italian ryegrass, herbicidal effect (Italian ryegrass [8]; dose 3.2 g/a): 3 (mortality of at least 40% and less than 70%)
D: large crabgrass, herbicidal effect (large crabgrass [9]; dose 3.2 g/a): 3 (mortality of at least 40% and less than 70%)
L: common lambsquater, herbicidal effect (common lambsquater [10]; dose 3.2 g/a): 2 (mortality of at least 20% and less than 40%)
I: velvetleaf, herbicidal effect (velvetleaf [11]): 3 (mortality of at least 40% and less than 70%)
A: barnyardgrass, herbicidal effect (barnyardgrass [12]; dose 3.2 g/a): 3 (mortality of at least 40% and less than 70%)
G: water foxtail, herbicidal effect (evaluation scale 0-5) (water foxtail [13]; dose 3.2 g/a): 5 (mortality of 90% or above (nearly complete death))
J: common ragweed, herbicidal effect (evaluation scale 0-5) (common ragweed [14]): 4 (mortality of at least 70% and less than 90%)
M: posumbu knotweed, herbicidal effect (evaluation scale 0-5) (posumbu knotweed [15]): 4 (mortality of at least 70% and less than 90%)
K: redroot pigweed, herbicidal effect (evaluation scale 0-5) (redroot pigweed [16]; dose 3.2 g/a): 2 (mortality of at least 20% and less than 40%)
F: wild oat, herbicidal effect (evaluation scale 0-5) (wild oat [17]; dose 3.2 g/a): 0 (mortality of less than 5% (almost ineffective))
O: beadstraw, herbicidal effect (evaluation scale 0-5) (beadstraw [18]; dose 3.2 g/a): 0 (mortality of less than 5% (almost ineffective))
N: common chickweed, herbicidal effect (evaluation scale 0-5) (common chickweed [19]; dose 3.2 g/a): 5 (mortality of 90% or above (nearly complete death))
E: giant foxtail, herbicidal effect (evaluation scale 0-5) (giant foxtail [20]; dose 3.2 g/a): 5 (mortality of 90% or above (nearly complete death))
H: Italian ryegrass, herbicidal effect (evaluation scale 0-5) (Italian ryegrass [21]; dose 3.2 g/a): 5 (mortality of 90% or above (nearly complete death))
D: large crabgrass, herbicidal effect (evaluation scale 0-5) (large crabgrass [22]; dose 3.2 g/a): 5 (mortality of 90% or above (nearly complete death))
L: common lambsquater, herbicidal effect (evaluation scale 0-5) (common lambsquater [23]; dose 3.2 g/a): 0 (mortality of less than 5% (almost ineffective))
I: velvetleaf, herbicidal effect (evaluation scale 0-5) (velvetleaf [24]): 3 (mortality of at least 40% and less than 70%)
A: barnyardgrass, herbicidal effect (evaluation scale 0-5) (barnyardgrass [25]; dose 3.2 g/a): 5 (mortality of 90% or above (nearly complete death))
C: ducksalad, herbicidal effect (evaluation scale 0-5) (ducksalad [26]): 5 (mortality of 90% or above (nearly complete death))
B: bulrush, herbicidal effect (evaluation scale 0-5) (bulrush [27]): 5 (mortality of 90% or above (nearly complete death))
A: barnyardgrass, herbicidal effect (evaluation scale 0-5) (barnyardgrass [28]): 5 (mortality of 90% or above (nearly complete death))
C: ducksalad, herbicidal effect (evaluation scale 0-5) (ducksalad [29]): 5 (mortality of 90% or above (nearly complete death))
B: bulrush, herbicidal effect (evaluation scale 0-5) (bulrush [30]): 5 (mortality of 90% or above (nearly complete death))
A: barnyardgrass, herbicidal effect (evaluation scale 0-5) (barnyardgrass [31]): 5 (mortality of 90% or above (nearly complete death))
a: transplanted rice, effect on crop (evaluation scale 0-5) (transplanted rice): 0 (mortality of less than 5% (almost ineffective))

CCC(=O)N(c1ccccc1CN1COC(C)(C)CC1=O)S(=O)(=O)C(F)(F)F [II-19, 6,6-dimethyl-3-[2-(N-ethylcarbonyl-N-trifluoromethanesulfonyl)aminobenzyl]-1,3-oxazinan-4-one]
G: water foxtail, herbicidal effect (water foxtail [1]; dose 6.3 g/a): 5 (mortality of 90% or above (nearly complete death))
J: common ragweed, herbicidal effect (common ragweed [2]; dose 6.3 g/a): 5 (mortality of 90% or above (nearly complete death))
F: wild oat, herbicidal effect (wild oat [32]): 0 (mortality of less than 5% (almost ineffective))
O: beadstraw, herbicidal effect (beadstraw [5]; dose 6.3 g/a): 5 (mortality of 90% or above (nearly complete death))
N: common chickweed, herbicidal effect (common chickweed [6]; dose 6.3 g/a): 4 (mortality of at least 70% and less than 90%)
E: giant foxtail, herbicidal effect (giant foxtail [7]; dose 6.3 g/a): 4 (mortality of at least 70% and less than 90%)
H: Italian ryegrass, herbicidal effect (Italian ryegrass [8]; dose 6.3 g/a): 4 (mortality of at least 70% and less than 90%)
D: large crabgrass, herbicidal effect (large crabgrass [9]; dose 6.3 g/a): 4 (mortality of at least 70% and less than 90%)
L: common lambsquater, herbicidal effect (common lambsquater [10]; dose 6.3 g/a): 0 (mortality of less than 5% (almost ineffective))
A: barnyardgrass, herbicidal effect (barnyardgrass [12]; dose 6.3 g/a): 5 (mortality of 90% or above (nearly complete death))
G: water foxtail, herbicidal effect (evaluation scale 0-5) (water foxtail [13]; dose 6.3 g/a): 5 (mortality of 90% or above (nearly complete death))
K: redroot pigweed, herbicidal effect (evaluation scale 0-5) (redroot pigweed [16]; dose 6.3 g/a): 2 (mortality of at least 20% and less than 40%)
F: wild oat, herbicidal effect (evaluation scale 0-5) (wild oat [17]; dose 6.3 g/a): 0 (mortality of less than 5% (almost ineffective))
O: beadstraw, herbicidal effect (evaluation scale 0-5) (beadstraw [18]; dose 6.3 g/a): 4 (mortality of at least 70% and less than 90%)
N: common chickweed, herbicidal effect (evaluation scale 0-5) (common chickweed [19]; dose 6.3 g/a): 4 (mortality of at least 70% and less than 90%)
E: giant foxtail, herbicidal effect (evaluation scale 0-5) (giant foxtail [20]; dose 6.3 g/a): 2 (mortality of at least 20% and less than 40%)
H: Italian ryegrass, herbicidal effect (evaluation scale 0-5) (Italian ryegrass [21]; dose 6.3 g/a): 5 (mortality of 90% or above (nearly complete death))
D: large crabgrass, herbicidal effect (evaluation scale 0-5) (large crabgrass [22]; dose 6.3 g/a): 5 (mortality of 90% or above (nearly complete death))
L: common lambsquater, herbicidal effect (evaluation scale 0-5) (common lambsquater [23]; dose 6.3 g/a): 0 (mortality of less than 5% (almost ineffective))
A: barnyardgrass, herbicidal effect (evaluation scale 0-5) (barnyardgrass [25]; dose 6.3 g/a): 5 (mortality of 90% or above (nearly complete death))
C: ducksalad, herbicidal effect (evaluation scale 0-5) (ducksalad [26]): 5 (mortality of 90% or above (nearly complete death))
B: bulrush, herbicidal effect (evaluation scale 0-5) (bulrush [27]): 5 (mortality of 90% or above (nearly complete death))
A: barnyardgrass, herbicidal effect (evaluation scale 0-5) (barnyardgrass [28]): 5 (mortality of 90% or above (nearly complete death))
C: ducksalad, herbicidal effect (evaluation scale 0-5) (ducksalad [29]): 5 (mortality of 90% or above (nearly complete death))
B: bulrush, herbicidal effect (evaluation scale 0-5) (bulrush [30]): 5 (mortality of 90% or above (nearly complete death))
A: barnyardgrass, herbicidal effect (evaluation scale 0-5) (barnyardgrass [31]): 5 (mortality of 90% or above (nearly complete death))
a: transplanted rice, effect on crop (evaluation scale 0-5) (transplanted rice): 0 (mortality of less than 5% (almost ineffective))
